What was measured:
Assay type in all cases: in vivo
Nilaparvata lugens = Nilaparvata lugens seedling dip test (paddy seedlings, third instar nymphs); details: 72 h after release, dead and moribund combined, compared to untreated control, read-out: percent mortality
Myzus persicae = Myzus persicae leaf dip test (capsicum leaves, third instar nymphs); details: foliar, 72 h after release, dead and moribund combined, compared to untreated control, read-out: percent mortality
Bemisia tabaci = Bemisia tabaci leaf dip test (brinjal leaves, whitefly adults); details: foliar, 72 h after release, dead and moribund combined, compared to untreated control, read-out: percent mortality
Experimental: The leaf dip method was used for testing, wherein the required quantity of the compound was weighed and dissolved in a tube containing a solvent solution. The tube was put on a vortex at 2000 rpm for 90 min for proper mixing and then the mixture was diluted with a 0.01% Triton-X solution to the desired test concentration. Brinjal leaves were dipped in the compound solution for 10 seconds, shade dried for 20 min and then placed, with the abaxial side of the leaf up, on 4 ml of a 1% agar-agar solution in respective container caps. Known numbers of freshly emerged whitefly adults were collected, using a modified aspirator, and released into a perforated container in which the cap containing the treated leaf was placed. The containers were kept in a plant growth chamber at a temperature of 25° C. and a relative humidity of 70%. Observations on dead, moribund and alive adults were recorded 72 h after the release. Percent mortality was calculated by combining dead and moribund adults and comparing the result to the one of the untreated control. The compounds 32 53 58 79 80 81 82 84 87 88 89 94 95 96 101 102 103 104 105 106 107 108 109 112 113 114 115 116 117 118 119 120 123 124 125 126 127 130 135 138 139 140 144 145 147 150 154 156 158 159 164 167 168 169 170 171 188 189 191 198 199 200 201 202 206 207 208 209 210 213 216 223 224 225 227 228 231 232 233 234 235 236 238 242 243 244 246 and 247 recorded≥70 percent mortality @ 300 PPM.

SMILES | mortality at 300 ppm (Nilaparvata lugens) | mortality at 300 ppm (Myzus persicae) | mortality at 300 ppm (Bemisia tabaci)
O=c1nc2n(Cc3cnc(Cl)s3)cccc-2c(=O)n1-c1ccccc1 [Compound 62, 8-((2-chlorothiazol-5-yl)methyl)-3-phenylpyrido[2,3-d]pyrimidine-2,4(3H,8H)-dione] | ≥ 70% |  | 
COc1cccc(-n2c(=O)nc3n(Cc4cnc(Cl)s4)cccc-3c2=O)c1 [Compound 72, 8-((2-chlorothiazol-5-yl)methyl)-3-(3-methoxyphenyl)pyrido[2,3-d]pyrimidine-2,4(3H,8H)-dione] | ≥ 70% |  | 
COc1ccccc1-n1c(=O)nc2n(Cc3cnc(Cl)s3)cccc-2c1=O [Compound 73, 8-((2-chlorothiazol-5-yl)methyl)-3-(2-methoxyphenyl)pyrido[2,3-d]pyrimidine-2,4(3H,8H)-dione] | ≥ 70% | ≥ 70% | 
Cc1cccc(-n2c(=O)nc3n(Cc4cnc(Cl)nc4)cccc-3c2=O)c1 [Compound 128, 8-((2-chloropyrimidin-5-yl)methyl)-3-(m-tolyl)pyrido[2,3-d]pyrimidine-2,4(3H,8H)-dione] | ≥ 70% |  | 
O=c1nc2n(Cc3cnc(Cl)s3)cccc-2c(=O)n1-c1cc(F)cc(F)c1 [Compound 141, 8-((2-chlorothiazol-5-yl)methyl)-3-(3,5-difluorophenyl)pyrido[2,3-d]pyrimidine-2,4(3H,8H)-dione] | ≥ 70% | ≥ 70% | 
O=c1nc2n(Cc3cnc(Cl)s3)cccc-2c(=O)n1-c1cccc(F)c1 [Compound 143, 8-((2-chlorothiazol-5-yl)methyl)-3-(3-fluorophenyl)pyrido[2,3-d]pyrimidine-2,4(3H,8H)-dione] | ≥ 70% |  | 
Cc1ccc(-n2c(=O)nc3n(Cc4cnc(Cl)nc4)cccc-3c2=O)cc1 [Compound 144, 8-((2-chloropyrimidin-5-yl)methyl)-3-(p-tolyl)pyrido[2,3-d]pyrimidine-2,4(3H,8H)-dione] |  |  | ≥ 70%
O=c1nc2n(Cc3cnc(Cl)s3)cccc-2c(=O)n1-c1cccc(OC(F)F)c1 [Compound 151, 8-((2-chlorothiazol-5-yl)methyl)-3-(3-(difluoromethoxy)phenyl)pyrido[2,3-d]pyrimidine-2,4(3H,8H)-dione] | ≥ 70% | ≥ 70% | 
O=c1nc2n(Cc3cnc(Cl)s3)cccc-2c(=O)n1-c1ccc(F)cc1 [Compound 153, 8-((2-chlorothiazol-5-yl)methyl)-3-(4-fluorophenyl)pyrido[2,3-d]pyrimidine-2,4(3H,8H)-dione] | ≥ 70% |  | 
O=c1nc2n(Cc3cnc(Cl)nc3)cccc-2c(=O)n1-c1ccc(OC(F)F)cc1 [Compound 160, 8-((2-chloropyrimidin-5-yl)methyl)-3-(4-(difluoromethoxy)phenyl)pyrido[2,3-d]pyrimidine-2,4(3H,8H)-dione] | ≥ 70% | ≥ 70% | 
O=c1nc2n(Cc3ccc(C(F)(F)F)nc3)cccc-2c(=O)n1-c1ccccc1F [Compound 162, 3-(2-fluorophenyl)-8-((6-(trifluoromethyl)pyridin-3-yl)methyl)pyrido[2,3-d]pyrimidine-2,4(3H,8H)-dione] | ≥ 70% |  | 
O=c1nc2n(Cc3cnc(Cl)s3)cccc-2c(=O)n1-c1ccc(F)c(Cl)c1 [Compound 165, 3-(3-chloro-4-fluorophenyl)-8-((2-chlorothiazol-5-yl)methyl)pyrido[2,3-d]pyrimidine-2,4(3H,8H)-dione] | ≥ 70% |  | 
O=c1nc2n(Cc3ccc(C(F)(F)F)nc3)cccc-2c(=O)n1-c1cccc(C(F)(F)F)c1 [Compound 172, 3-(3-(trifluoromethyl)phenyl)-8-((6-(trifluoromethyl)pyridin-3-yl)methyl)pyrido[2,3-d]pyrimidine-2,4(3H,8H)-dione] |  | ≥ 70% | 
O=c1nc2n(Cc3cnc(Cl)nc3)cccc-2c(=O)n1-c1ccsc1 [Compound 179, 8-((2-chloropyrimidin-5-yl)methyl)-3-(thiophen-3-yl)pyrido[2,3-d]pyrimidine-2,4(3H,8H)-dione] | ≥ 70% | ≥ 70% | 
O=c1nc2n(Cc3cnc(Cl)s3)cccc-2c(=O)n1-c1cccc(C(F)F)c1 [Compound 187, 8-((2-chlorothiazol-5-yl)methyl)-3-(3-(difluoromethyl)phenyl)pyrido[2,3-d]pyrimidine-2,4(3H,8H)-dione] | ≥ 70% | ≥ 70% | 
O=c1nc2n(Cc3cnc(Cl)s3)cccc-2c(=O)n1-c1ccc(Cl)cc1F [Compound 193, 3-(4-chloro-2-fluorophenyl)-8-((2-chlorothiazol-5-yl)methyl)pyrido[2,3-d]pyrimidine-2,4(3H,8H)-dione] | ≥ 70% | ≥ 70% | 
O=c1nc2n(Cc3ccc(Cl)nc3)cccc-2c(=O)n1-c1ccc(OC(F)(F)F)c(Cl)c1 [Compound 195, 3-(3-chloro-4-(trifluoromethoxy)phenyl)-8-((6-chloropyridin-3-yl)methyl)pyrido[2,3-d]pyrimidine-2,4(3H,8H)-dione] | ≥ 70% | ≥ 70% | 
O=c1nc2n(Cc3cnc(Cl)nc3)cccc-2c(=O)n1-c1cccc(C(F)F)c1 [Compound 203, 8-((2-chloropyrimidin-5-yl)methyl)-3-(3-(difluoromethyl)phenyl)pyrido[2,3-d]pyrimidine-2,4(3H,8H)-dione] | ≥ 70% | ≥ 70% | 
O=c1nc2n(Cc3cnc(Cl)nc3)cccc-2c(=O)n1-c1cccc(F)c1F [Compound 205, 8-((2-chloropyrimidin-5-yl)methyl)-3-(2,3-difluorophenyl)pyrido[2,3-d]pyrimidine-2,4(3H,8H)-dione] | ≥ 70% | ≥ 70% | 
O=c1nc2n(Cc3ccc(Cl)nc3)cccc-2c(=O)n1-c1cccc(OCC(F)(F)F)c1 [Compound 211, 8-((6-chloropyridin-3-yl)methyl)-3-(3-(2,2,2-trifluoroethoxy)phenyl)pyrido[2,3-d]pyrimidine-2,4(3H,8H)-dione] | ≥ 70% | ≥ 70% | 
O=c1nc2n(Cc3cnc(Cl)s3)cccc-2c(=O)n1-c1ccc(OC(F)(F)F)c(Cl)c1 [Compound 212, 3-(3-chloro-4-(trifluoromethoxy)phenyl)-8-((2-chlorothiazol-5-yl)methyl)pyrido[2,3-d]pyrimidine-2,4(3H,8H)-dione] | ≥ 70% | ≥ 70% | 
O=c1nc2n(Cc3cnc(Cl)s3)cccc-2c(=O)n1-c1cccc(F)c1F [Compound 214, 8-((2-chlorothiazol-5-yl)methyl)-3-(2,3-difluorophenyl)pyrido[2,3-d]pyrimidine-2,4(3H,8H)-dione] | ≥ 70% | ≥ 70% | 
O=c1nc2n(Cc3cnc(Cl)s3)cccc-2c(=O)n1-c1c(F)cccc1F [Compound 215, 8-((2-chlorothiazol-5-yl)methyl)-3-(2,6-difluorophenyl)pyrido[2,3-d]pyrimidine-2,4(3H,8H)-dione] | ≥ 70% |  | 
O=c1nc2n(Cc3cnc(Cl)s3)cccc-2c(=O)n1-c1cccc(Cl)c1F [Compound 217, 3-(3-chloro-2-fluorophenyl)-8-((2-chlorothiazol-5-yl)methyl)pyrido[2,3-d]pyrimidine-2,4(3H,8H)-dione] | ≥ 70% | ≥ 70% | 
O=c1nc2n(Cc3ccc(Cl)nc3)cccc-2c(=O)n1-c1ccc(Cl)c(C(F)(F)F)c1 [Compound 219, 3-(4-chloro-3-(trifluoromethyl)phenyl)-8-((6-chloropyridin-3-yl)methyl)pyrido[2,3-d]pyrimidine-2,4(3H,8H)-dione] | ≥ 70% |  | 
O=c1nc2n(Cc3ccc(Cl)nc3)cccc-2c(=O)n1-c1ccc(F)c(C(F)(F)F)c1 [Compound 222, 8-((6-chloropyridin-3-yl)methyl)-3-(4-fluoro-3-(trifluoromethyl)phenyl)pyrido[2,3-d]pyrimidine-2,4(3H,8H)-dione] |  | ≥ 70% | 
O=c1nc2n(Cc3cnc(Cl)nc3)cccc-2c(=O)n1-c1cccc(Cl)c1F [Compound 226, 3-(3-chloro-2-fluorophenyl)-8-((2-chloropyrimidin-5-yl)methyl)pyrido[2,3-d]pyrimidine-2,4(3H,8H)-dione] | ≥ 70% | ≥ 70% | 
O=c1nc2n(Cc3cnc(Cl)s3)cccc-2c(=O)n1-c1ccc(F)cc1Cl [Compound 237, 3-(2-chloro-4-fluorophenyl)-8-((2-chlorothiazol-5-yl)methyl)pyrido[2,3-d]pyrimidine-2,4(3H,8H)-dione] | ≥ 70% |  | 
O=c1nc2n(Cc3cnc(Cl)nc3)cccc-2c(=O)n1-c1ccc(C2CC2)cc1 [Compound 245, 8-((2-chloropyrimidin-5-yl)methyl)-3-(4-cyclopropylphenyl)pyrido[2,3-d]pyrimidine-2,4(3H,8H)-dione] | ≥ 70% |  | 
O=c1nc2n(Cc3cnc(Cl)s3)cccc-2c(=O)n1-c1cccc(Br)c1 [Compound 249, 3-(3-bromophenyl)-8-((2-chlorothiazol-5-yl)methyl)pyrido[2,3-d]pyrimidine-2,4(3H,8H)-dione] | ≥ 70% |  | 

— patent publication US20240425502A1, “BICYCLIC HETEROAROMATIC COMPOUNDS AND THEIR USE AS PEST CONTROL AGENTS” (PI INDUSTRIES LTD., priority 2021, published 2024)
